Test results published in patent US7037962B2, “Composition and process for enhancing bio-mass production in greenhouses” (Ciba Specialty Chemicals Corp., priority 2002, dated 2006).

Tested on: Carnation
Test: Growth of carnation in greenhouses covered with the film
Assay type: in vivo
Conditions: 1% compound 100 in Film A versus Film B
Experimental: A three layer LDPE/EVA industrial film is prepared by blow molding having the following structure: 200μ thickness, 50μ EVA 5%, 100μ EVA 14% and 50μ EVA 5%. […] Agricultural Tests Two cultivars, namely ‘Jack’ and ‘Samuela’, have been grown under two greenhouses one with film A and the other with film B. The cultivation started on the 18 Sep. 2001 and harvesting started on the 3, Oct. 2001. The cultivation conditions are the standard conditions used in the region.

CN(C)c1ccc(C=C2C(=O)NC(=O)NC2=O)cc1 [compound 100, condensation product of 4-dimethylaminobenzaldehyde and barbituric acid] was tested, and the “effect on the production and quality of carnation” value was “evident”.
